Test system: PCA (Passive Cutaneous Anaphylaxis) reaction
Assay: Inhibitory effect on PCA (Passive Cutaneous Anaphylaxis) reaction
Format: in vivo, male SD (Spraque-Dawley) strain rats
Conditions: rat, 1 mg/kg intravenously, 5 minutes before the challenge with antigen; percent inhibition of dye spot size vs control
Protocol: A solution of egg albumin (2 mg) in B. pertussisdiphtheria-tetanus mixed vaccine (1 ml) was mixed with Freund incomplete adjuvant (1 ml) to give an emulsion. The emulsion was given subcutaneously in a single dose of 1 ml divided equally (0.25 ml) to the four foot pads of male SD (Spraque-Dawley) strain rats aged 8 weeks, each weighing about 300 g.
8 days after the immunization, blood samples were collected from femoral artery of the rats and allowed to stand under ice-cooling for 5 hours. The separated supernatant was centrifuged at 4° C. (10,000 r.p.m.×1 hour). The antisera thus obtained were stored at -80° C. prior to use.
Male SD-strain rats aged 8 weeks, weighing 250 to 300 g, were used for PCA reaction with the homologous reaginic antiserum as prepared above. Each 0.1 ml of 32 fold diluted antiserum were injected intradermally at separate sites on the back of rats clipped free of hair, and 48 hours later, 1 ml of aqueous solution containing each 5 mg of the egg albumin and Evans blue was injected intravenously to evoke PCA reaction. Test compound was given to the animals intravenously 5 minutes before the challenge with antigen. Control group received vehicle. Each dose group consisted of 4 animals. […] The results were expressed by percent inhibition values calculated from averaged values of the longest and shortest diameters for each spot in comparison with those in control group. […]

N-(1H-tetrazol-5-yl)-10-(2,3-dimethylpentanoylamino)-7-methyl-4-oxo-4H-pyrimido[2,1-a]isoquinoline-3-carboxamide [Example 11]
Inhibitory effect: 100%

From US4673676A, “Pyrimidoisoquinoline derivatives useful for treating allergies” (Fujisawa Pharmaceutical Co., Ltd., priority 1983, dated 1987)
